Data on one compound can be found in US20100204248A1, “MEDICAMENTS AND METHODS FOR INHIBITION OF NON-OCULAR SCARRING” (Renovo Limited, priority 2007, published 2010).

The test system of one assay is excisional wounds. Kind of assay: Excisional wound healing model, 5 mm punch biopsy wounds harvested day 3. It is filed as in vivo, Sprague Dawley rats. The protocol:
One hundred microlitres of 6-mercaptopurine at 1 ng, 10 ng or 1000 ng in phosphate buffered saline (PBS, pH 7.2; GIBCO BRL, Cat. #20012-019) containing 5% ethanol was injected intradermally at the wound sites. […] Separate groups of rats used as naïve controls and diluent controls. Naïve control animals were wounded without treatment, whilst diluent control animals were injected with 100 μl of the PBS/ethanol mixture prior to wounding. […] For microscopic assessment the scars were excised from the experimental rats (incorporating a small amount of surrounding normal tissue) and fixed in 10% (v/v) buffered formal saline. […]

The target of the next assay is NR4A1 (Homo sapiens, UniProt P22736). The note with it: cited from earlier work.
Sequence of NR4A1 (P22736 whole entry): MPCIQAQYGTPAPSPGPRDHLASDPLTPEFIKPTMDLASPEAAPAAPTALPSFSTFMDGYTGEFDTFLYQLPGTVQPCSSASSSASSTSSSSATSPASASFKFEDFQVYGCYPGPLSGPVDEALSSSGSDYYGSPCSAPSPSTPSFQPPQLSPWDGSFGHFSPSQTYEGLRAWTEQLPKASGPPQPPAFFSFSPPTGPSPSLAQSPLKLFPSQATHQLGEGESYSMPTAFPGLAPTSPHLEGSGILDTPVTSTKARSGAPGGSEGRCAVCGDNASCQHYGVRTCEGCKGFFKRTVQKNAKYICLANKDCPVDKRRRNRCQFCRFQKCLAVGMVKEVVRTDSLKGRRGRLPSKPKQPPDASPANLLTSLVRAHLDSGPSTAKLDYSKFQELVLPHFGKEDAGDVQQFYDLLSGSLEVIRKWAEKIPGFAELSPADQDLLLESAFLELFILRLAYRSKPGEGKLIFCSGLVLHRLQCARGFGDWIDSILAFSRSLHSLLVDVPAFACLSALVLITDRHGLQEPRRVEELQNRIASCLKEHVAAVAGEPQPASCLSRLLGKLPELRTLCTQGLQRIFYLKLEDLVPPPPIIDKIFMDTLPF
In the next assay the test system is incisional wounds. Kind of assay: Incisional wound healing model, wounds harvested three days post-wounding. It is filed as in vivo, Sprague Dawley rats. As for the experimental part:
(§1) At day 0, male Sprague Dawley rats (200-250 g) were anaesthetised, shaved and wound sites were marked according to the Renovo rat incisional wounding template (2 wound model, 2×1 cm wounds, 5 cm from the base of the skull and 1 cm from the midline in each rat). One hundred microlitres of 6-mercaptopurine at 1 ng, 10 ng or 1000 ng in phosphate buffered saline (PBS, pH 7.2; GIBCO BRL, Cat. #20012-019) containing 5% ethanol was injected intradermally at the wound sites. The intradermal injections caused the formation of a raised bleb, which was then immediately incised to form 1 cm long experimental wounds. Separate groups of rats used as naïve controls and diluent controls. Naïve control animals were wounded without treatment, whilst diluent control animals were injected with 100 μl of the PBS/ethanol mixture prior to wounding. All treated or diluent control wounds were re-injected again 1 day post-wounding with the appropriate treatment via injection of 50 μl to each of the two margins of the 1 cm wound. Wounds from the treated, naïve control and diluent control animals were all harvested at day 70 post-wounding.
Treated and control incisional wounds were created as described above, to allow assessment of the effects of NR4A agonists, such as 6-mercaptopurines, on wound healing. Wounds from the treated, naïve control and diluent control animals were all harvested at three days post-wounding.
The wounds were photographed after wounding, prior to re-injection on day one and on the day of harvest. Day three incisional or excisional wounds were excised from the experimental rats (incorporating a small amount of surrounding normal tissue). […] The fixed tissue was then processed for wax histology, stained using Masson's trichrome, and wound width assessed using image analysis software. Width of incisional wounds was measured at a point mid-way through the depth of the wound, whereas width of excisional wounds was measured at the top of the wounds.

Assay [1] concerns full thickness cutaneous incisional wounds. The assay is described as follows: Scarring model: rat incisional wounds, macroscopic and microscopic VAS scar assessment at day 70. It is filed as in vivo, Sprague Dawley rats. Particulars: for macroscopic appearance of scars (macroscopic VAS): before wounding and 1 day post-wounding; for macroscopic appearance of scars (macroscopic VAS) / microscopic appearance of scars (microscopic VAS): vs naïve control or diluent control. As for the experimental part: as §1, with “The intradermal injections caused the formation of a raised bleb, which was then immediately incised to form 1 cm long experimental wounds.” left out, “post-wounding. The wounds were photographed after wounding, prior to re-injection on day 1 and on day of harvest. The scars were assessed using standard macroscopic scar assessment using a visual analogue scale (VAS) consisting of a 0-10 cm line representing a scale, from left to right, of 0 (corresponding to normal skin) to 10 (indicative of a bad scar). For microscopic assessment the scars were excised from the experimental rats (incorporating a small amount of surrounding normal tissue) and fixed in 10% (v/v) buffered formal saline. The fixed tissue was then processed for wax histology, stained using Masson's trichrome, and scarring assessed using a microscopic visual analogue scale (VAS).” for “post-wounding.”

In the next assay the target is NR4A2 (Homo sapiens, UniProt P43354). Particulars: cited from earlier work.
Sequence of NR4A2 (P43354 whole entry): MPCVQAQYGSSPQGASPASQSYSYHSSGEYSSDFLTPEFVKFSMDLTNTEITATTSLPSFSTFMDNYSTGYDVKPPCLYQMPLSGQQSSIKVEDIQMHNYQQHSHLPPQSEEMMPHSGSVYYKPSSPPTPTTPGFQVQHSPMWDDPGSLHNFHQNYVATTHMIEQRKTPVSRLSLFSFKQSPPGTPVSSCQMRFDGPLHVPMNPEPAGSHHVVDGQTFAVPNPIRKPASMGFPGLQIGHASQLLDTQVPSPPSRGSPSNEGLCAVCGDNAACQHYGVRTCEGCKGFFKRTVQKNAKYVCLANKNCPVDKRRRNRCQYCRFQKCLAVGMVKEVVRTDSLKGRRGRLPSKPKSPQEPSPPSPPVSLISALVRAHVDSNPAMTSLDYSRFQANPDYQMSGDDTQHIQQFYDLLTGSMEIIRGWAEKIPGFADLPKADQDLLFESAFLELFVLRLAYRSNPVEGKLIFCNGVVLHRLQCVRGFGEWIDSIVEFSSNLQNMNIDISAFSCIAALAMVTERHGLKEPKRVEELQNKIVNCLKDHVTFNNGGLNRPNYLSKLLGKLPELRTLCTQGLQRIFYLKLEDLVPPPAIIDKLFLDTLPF
A further assay addresses NR4A3 (Homo sapiens, UniProt Q92570). The note with it: cited from earlier work.
The mark [2] stands for this setting: day 3, measured at top of wound, 1, 10 or 1000 ng/100 μl intradermal.
Where [3] appears, read: day 3, measured mid-way through wound depth, 1, 10 or 1000 ng/100 μl intradermal.

Sequence of NR4A3 (Q92570 whole entry): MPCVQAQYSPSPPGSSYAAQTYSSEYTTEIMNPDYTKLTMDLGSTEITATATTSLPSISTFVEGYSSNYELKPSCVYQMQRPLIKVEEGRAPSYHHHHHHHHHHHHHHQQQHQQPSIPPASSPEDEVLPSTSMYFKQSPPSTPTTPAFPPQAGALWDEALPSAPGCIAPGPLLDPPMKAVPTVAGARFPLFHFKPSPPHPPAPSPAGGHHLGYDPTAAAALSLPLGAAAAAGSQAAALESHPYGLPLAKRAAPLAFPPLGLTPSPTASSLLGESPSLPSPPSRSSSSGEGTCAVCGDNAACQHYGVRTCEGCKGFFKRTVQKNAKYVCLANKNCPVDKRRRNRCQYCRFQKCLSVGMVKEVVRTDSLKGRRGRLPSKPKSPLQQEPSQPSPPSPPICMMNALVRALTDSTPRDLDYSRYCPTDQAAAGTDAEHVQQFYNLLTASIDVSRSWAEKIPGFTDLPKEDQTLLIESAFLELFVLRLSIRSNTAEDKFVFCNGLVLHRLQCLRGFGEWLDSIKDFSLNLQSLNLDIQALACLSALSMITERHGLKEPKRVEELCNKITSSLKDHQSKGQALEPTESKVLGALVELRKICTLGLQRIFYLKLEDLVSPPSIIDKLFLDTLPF

`Sc1ncnc2nc[nH]c12` [6-mercaptopurine]: the “width of excisional wounds lower than naïve controls, significance” value in the assay with excisional wounds (1 ng/100 μl, day 3, p<0.01 versus naïve control only (FIG. 5)) is “significantly so”. In the assay with excisional wounds (setting [2]), the “width of excisional wounds compared to controls” value is recorded as “not increased”. The “width of excisional wounds compared to naïve controls” value in the assay on excisional wounds (setting [2]) is listed as “consistently lower”. Moreover, the “percentage re-epithelialisation of excisional wounds” value in the assay with excisional wounds (three days after excision, vs diluent control and naïve control) is “trend towards increased re-epithelialisation”. The agonist activity entry on NR4A1, at NR4A2 and at NR4A3 was “agonist” throughout. The “width of incisional wounds compared to controls” value with incisional wounds (setting [3]) is reported as “not increased”. Moreover, the “width of incisional wounds compared to naïve controls” value in the assay on incisional wounds (setting [3]) is “consistently lower”. In addition, in the assay with incisional wounds (three days after wounding, comparable with control wounds), the “re-epithelialisation of incisional wounds” value is recorded as “fully re-epithelialised”. For the same compound, the “macroscopic appearance of scars (macroscopic VAS)” value in assay [1] (1 ng/100 μl intradermal), in assay [1] (10 ng/100 μl intradermal) and in assay [1] (1000 ng/100 μl intradermal) was “improved” each time. In addition, the “microscopic appearance of scars (microscopic VAS)” value in assay [1] (1 ng/100 μl intradermal), in assay [1] (10 ng/100 μl intradermal) and in assay [1] (1000 ng/100 μl intradermal) was “significantly improved” in each case. The “inhibition of scarring, microscopic appearance” value in assay [1] (1 ng/100 μl, compared to both diluent and control wounds (p<0.01)) is recorded as “significantly inhibited scarring”; in assay [1] (10 ng/100 μl, compared to diluent and naïve controls (p<0.05)) it was “significantly inhibited scarring”; in assay [1] (1000 ng/100 μl, compared to diluent controls (p<0.05)), “significantly inhibited scarring”. Further, the “inhibition of scarring, macroscopic appearance of treated wounds” value is given as “statistically significant inhibition of scarring” in assay [1] (1 ng/100 μl, p<0.05 as compared to diluent controls); “statistically significant inhibition of scarring” in assay [1] (1000 ng/100 μl, p<0.05 as compared to both diluent and naïve controls).
